pIC50: −log10 of the molar value.
Biological target: T1, human metabotropic glutamate receptor 2 (mGluR2) (Homo sapiens, UniProt Q14416)
T1 construct: expressed in transfected cells; co-expressing human SLC1A3), cell membrane fraction
Assay: [35S]GTPγS binding assay (Affinity to mGluR2)
Assay type: biochemical
Conditions: cell membrane fraction of HEK293 cells stably expressing human mGluR2; glutamic acid 10 μM
Experimental: (Preparation of Cell Membrane Fraction of HEK293 Cells Stably Expressing Human Metabotropic Glutamate Receptor 2 (mGluR2))
HEK293 cells stably expressing human mGluR2 and human glutamate transporter SLC1A3 were cultured in a Dulbecco's modified Eagle's medium with 10% fetal bovine serum (50 units/mL of penicillin, 50 μg/mL of streptomycin, 60 μg/mL of geneticin, 400 μg/mL of hygromycin B and 2 mM of glutamine) at 37° C. under 5% CO2. Confluent cell cultures were washed twice with PBS(−), and then scraped off with a cell scraper, and subjected to centrifugal separation at 4° C. and 1500 rpm for 5 minutes for collecting cells. The centrifuged sediment (cell pellet) was homogenized in a 20 mM HEPES buffer containing 10 mM EDTA (pH 7.4) by using sonicator and centrifuged at 4° C. and 1500×g for 30 minutes. The supernatant (soluble fraction) was subjected to the centrifugal separation at 4° C. and 40,000×g for 30 minutes, and thus, insoluble fraction was obtained. After additional centrifugally washing the obtained fraction with 20 mM HEPES buffer containing 10 mM EDTA (pH 7.4), the pellet was centrifugally suspended with a 20 mM HEPES buffer containing 0.1 mM EDTA, and the cell membrane fraction was obtained by the centrifugal separation at 4° C. and 40,000×g for 30 minutes. The thus obtained cell membrane fraction was suspended in a 20 mM HEPES buffer containing 0.1 mM EDTA in a protein concentration of 3 mg/mL, which was stored at −80° C.
([^35S]GTPγS binding assay)
The frozen cell membrane fraction prepared as described above was thawed before use, and the resultant was diluted with a buffer for a binding assay (final concentrations: 20 mM HEPES, 100 mM NaCl, 1 mM MgCl2, 3 μM GDP, 300 μg/mL saponin, 0.1% BSA). The compound of each example was added to a cell membrane fraction containing 1.8 to 3 μg/assay of membrane protein on a plate, followed by incubation at room temperature for 30 minutes. Thereafter, with glutamic acid (in a final concentration of 10 μM) added thereto, incubation was performed at room temperature for 15 minutes, and thereafter, [^35S]GTPγS (in a final concentration of 0.8 kBq) and 588 μg WGA-SPA beads were added thereto, followed by incubation at room temperature for 1 hour. After the incubation, the plate was subjected to the centrifugal separation at 2,500 rpm and room temperature, and then, membrane cell binding radioactivity was measured with a top count.
A [^35S]GTPγS binding amount obtained by performing the above-described reaction in the absence of glutamic acid was defined as nonspecific binding, and a difference from a [^35S]GTPγS binding amount obtained in the presence of glutamic acid was defined as specific binding. On the basis of ratios of inhibiting the specific binding at various concentrations of the compounds of the respective examples, inhibition curves were obtained. Concentrations of the compounds of the respective examples at which the specific [^35S]GTPγS binding amount was suppressed by 50% (IC50 values) were calculated on the basis of the inhibition curves and shown in Table 3.

T1 sequence (Q14416 19-872): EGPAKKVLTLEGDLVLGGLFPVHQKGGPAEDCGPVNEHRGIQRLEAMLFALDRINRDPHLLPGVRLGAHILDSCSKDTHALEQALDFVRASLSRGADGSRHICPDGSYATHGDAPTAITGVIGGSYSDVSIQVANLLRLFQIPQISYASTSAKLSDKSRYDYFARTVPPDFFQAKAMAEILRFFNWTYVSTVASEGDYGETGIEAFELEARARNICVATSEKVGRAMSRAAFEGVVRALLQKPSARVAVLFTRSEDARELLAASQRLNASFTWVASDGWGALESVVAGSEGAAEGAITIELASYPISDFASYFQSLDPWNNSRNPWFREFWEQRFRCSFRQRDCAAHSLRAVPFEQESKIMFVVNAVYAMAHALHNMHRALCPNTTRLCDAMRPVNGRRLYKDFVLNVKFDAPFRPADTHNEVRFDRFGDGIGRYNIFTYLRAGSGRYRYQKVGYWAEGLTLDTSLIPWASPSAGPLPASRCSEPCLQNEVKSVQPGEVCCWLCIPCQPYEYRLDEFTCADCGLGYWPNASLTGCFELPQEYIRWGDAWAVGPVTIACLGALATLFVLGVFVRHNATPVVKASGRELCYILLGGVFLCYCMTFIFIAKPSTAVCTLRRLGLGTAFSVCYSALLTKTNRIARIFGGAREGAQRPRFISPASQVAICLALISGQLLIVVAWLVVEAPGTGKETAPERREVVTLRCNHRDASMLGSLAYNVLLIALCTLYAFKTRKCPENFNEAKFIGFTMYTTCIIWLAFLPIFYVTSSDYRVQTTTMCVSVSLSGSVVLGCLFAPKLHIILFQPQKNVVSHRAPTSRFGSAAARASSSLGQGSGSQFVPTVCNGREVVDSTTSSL

## CC1Cn2c(-c3ccc(OC(F)F)cc3)nc(-c3ccc(S(=O)(=O)NC4(C)CCC4)cc3)c2CCO1 (stereo not drawn) [Example 27]
  pIC50: 8.64

## CC(C)NS(=O)(=O)c1ccc(-c2nc(-c3ccc(OC(F)F)cc3)n3c2CCO[C@H](CF)C3)cc1 [Example 53]
  pIC50: 8.33

## CCNS(=O)(=O)c1ccc(-c2nc(-c3ccc(OC)cc3)n3c2CCO[C@H](CF)C3)cc1 [Example 46]
  pIC50: 8.22

## CCOc1ccc(-c2nc(-c3ccc(S(=O)(=O)NC(C)(C)C)cc3)c3n2C[C@@H](CF)OCC3)cc1 [Example 55]
  pIC50: 8.54

## C[C@@H]1Cn2c(-c3ccc(OC(F)F)cc3)nc(-c3ccc(S(=O)(=O)NC4CCC4)cc3)c2CCO1 [Example 24]
  pIC50: 8.57

## CNS(=O)(=O)c1ccc(-c2nc(-c3ccc(OCF)cc3)n3c2CCO[C@H](C)C3)cc1 [Example 20]
  pIC50: 7.66

## COc1ccc(-c2nc(-c3ccc(S(=O)(=O)NC4CC4)cc3)c3n2C[C@@H](C)OCC3)cc1 [Example 28]
  pIC50: 8.13

## CNS(=O)(=O)c1ccc(-c2nc(-c3ccc(OC(F)F)cc3)n3c2CCO[C@H](C)C3)cc1 [Example 25]
  pIC50: 8.51

## CC(C)NS(=O)(=O)c1ccc(-c2nc(-c3ccc(OC(F)F)cc3)n3c2CCO[C@H](C)C3)cc1 [Example 12]
  pIC50: 8.85

## Cc1ccc(-c2nc(-c3ccc(S(=O)(=O)NC(C)C)cc3)c3n2C[C@@H](C)OCC3)cc1F [Example 65]
  pIC50: 8.17

## C[C@@H]1Cn2c(-c3ccc(OC(F)F)cc3)nc(-c3ccc(S(=O)(=O)NC4CC4)cc3)c2CCO1 [Example 23]
  pIC50: 8.80

## C[C@@H]1Cn2c(-c3ccc(OCF)cc3)nc(-c3ccc(S(=O)(=O)NC(C)(C)C)cc3)c2CCO1 [Example 5]
  pIC50: 8.57

## CCNS(=O)(=O)c1ccc(-c2nc(-c3ccc(OC(F)F)cc3)n3c2CCO[C@H](C)C3)cc1 [Example 26]
  pIC50: 8.43

## CCOc1ccc(-c2nc(-c3ccc(S(=O)(=O)NC(C)(C)C)cc3)c3n2C[C@@H](C)OCC3)cc1 [Example 7]
  pIC50: 8.44

## CC(C)NS(=O)(=O)c1ccc(-c2nc(-c3ccc(OC4COC4)cc3)n3c2CCOC(C)C3)cc1 (stereo not drawn) [Example 11]
  pIC50: 8.15

## O=S(=O)(NC1CCC1)c1ccc(-c2nc(-c3ccc(F)cc3)n3c2CCO[C@H](CF)C3)cc1 [Example 38]
  pIC50: 8.66

## COc1ccc(-c2nc(-c3ccc(S(=O)(=O)NC4CCC4)cc3)c3n2C[C@@H](CF)OCC3)cc1 [Example 44]
  pIC50: 8.64

## COc1ccc(-c2nc(-c3ccc(S(=O)(=O)NC(C)(C)C)cc3)c3n2C[C@@H](C)OCC3)cc1F [Example 63]
  pIC50: 8.41

## CCNS(=O)(=O)c1ccc(-c2nc(-c3ccc(OCC)cc3)n3c2CCO[C@H](C)C3)cc1 [Example 35]
  pIC50: 8.74

## CC(C)NS(=O)(=O)c1ccc(-c2nc(-c3ccc(OCF)cc3)n3c2CCO[C@H](CF)C3)cc1 [Example 51]
  pIC50: 7.92

## CCNS(=O)(=O)c1ccc(-c2nc(-c3ccc(OCC)cc3)n3c2CCO[C@H](CF)C3)cc1 [Example 50]
  pIC50: 8.02

## O=S(=O)(NC1CCC1)c1ccc(-c2nc(-c3ccc(OCF)cc3)n3c2CCO[C@H](CF)C3)cc1 [Example 58]
  pIC50: 7.82

## CNS(=O)(=O)c1ccc(-c2nc(-c3ccc(F)cc3)n3c2CCO[C@H](C)C3)cc1 [Example 14]
  pIC50: 8.01

## COc1ccc(-c2nc(-c3ccc(S(=O)(=O)NC(C)(C)C)cc3)c3n2C[C@@H](C)OCC3)cc1 [Example 10]
  pIC50: 8.74

## CCNS(=O)(=O)c1ccc(-c2nc(-c3ccc(OC(F)F)cc3)n3c2CCO[C@H](CF)C3)cc1 [Example 59]
  pIC50: 8.41

## C[C@@H]1Cn2c(-c3ccc(OCF)cc3)nc(-c3ccc(S(=O)(=O)NC4CCC4)cc3)c2CCO1 [Example 19]
  pIC50: 8.20

## C[C@@H]1Cn2c(-c3ccc(F)cc3)nc(-c3ccc(S(=O)(=O)NC4CCC4)cc3)c2CCO1 [Example 37]
  pIC50: 8.64

## CCOc1ccc(-c2nc(-c3ccc(S(=O)(=O)NC4(C)CCC4)cc3)c3n2C[C@@H](C)OCC3)cc1 [Example 36]
  pIC50: 8.89

## CCOc1ccc(-c2nc(-c3ccc(S(=O)(=O)NC(C)C)cc3)c3n2C[C@@H](C)OCC3)cc1 [Example 6]
  pIC50: 8.49

## CNS(=O)(=O)c1ccc(-c2nc(-c3ccc(OC)cc3)n3c2CCO[C@H](C)C3)cc1 [Example 29]
  pIC50: 7.57

## CCOc1ccc(-c2nc(-c3ccc(S(=O)(=O)NC4CC4)cc3)c3n2C[C@@H](CF)OCC3)cc1 [Example 49]
  pIC50: 7.95

## COc1ccc(-c2nc(-c3ccc(S(=O)(=O)NC4(C)CCC4)cc3)c3n2C[C@@H](CF)OCC3)cc1 [Example 45]
  pIC50: 8.66

## CCNS(=O)(=O)c1ccc(-c2nc(-c3ccc(OC)cc3)n3c2CCO[C@H](C)C3)cc1 [Example 30]
  pIC50: 8.13

## C[C@@H]1Cn2c(-c3ccc(F)cc3)nc(-c3ccc(S(=O)(=O)NC4CC4)cc3)c2CCO1 [Example 16]
  pIC50: 8.38

## Cc1ccc(-c2nc(-c3ccc(S(=O)(=O)NC(C)(C)C)cc3)c3n2C[C@@H](C)OCC3)cc1F [Example 64]
  pIC50: 8.35

## CC(C)NS(=O)(=O)c1ccc(-c2nc(-c3ccc(OCF)cc3)n3c2CCO[C@H](C)C3)cc1 [Example 4]
  pIC50: 8.48

## CC1(NS(=O)(=O)c2ccc(-c3nc(-c4ccc(OC(F)F)cc4)n4c3CCO[C@H](CF)C4)cc2)CCC1 [Example 61]
  pIC50: 8.43

## O=S(=O)(NC1CCC1)c1ccc(-c2nc(-c3ccc(OC(F)F)cc3)n3c2CCO[C@H](CF)C3)cc1 [Example 60]
  pIC50: 8.34

## CCOc1ccc(-c2nc(-c3ccc(S(=O)(=O)NC4CCC4)cc3)c3n2C[C@@H](C)OCC3)cc1 [Example 33]
  pIC50: 8.52

## CCNS(=O)(=O)c1ccc(-c2nc(-c3ccc(F)cc3)n3c2CCO[C@H](C)C3)cc1 [Example 15]
  pIC50: 8.39

## COc1ccc(-c2nc(-c3ccc(S(=O)(=O)NC4(C)CCC4)cc3)c3n2CC(C)OCC3)cc1 (stereo not drawn) [Example 31]
  pIC50: 8.52

## C[C@@H]1Cn2c(-c3ccc(F)cc3)nc(-c3ccc(S(=O)(=O)NC(C)(C)C)cc3)c2CCO1 [Example 13]
  pIC50: 8.40

## CCNS(=O)(=O)c1ccc(-c2nc(-c3ccc(F)cc3)n3c2CCO[C@H](CF)C3)cc1 [Example 42]
  pIC50: 8.01

## COc1ccc(-c2nc(-c3ccc(S(=O)(=O)NC(C)C)cc3)c3n2C[C@@H](CF)OCC3)cc1 [Example 43]
  pIC50: 8.51

## CC(C)(C)NS(=O)(=O)c1ccc(-c2nc(-c3ccc(OC(F)F)cc3)n3c2CCO[C@H](CF)C3)cc1 [Example 54]
  pIC50: 8.31

## CCOc1ccc(-c2nc(-c3ccc(S(=O)(=O)NC)cc3)c3n2C[C@@H](C)OCC3)cc1 [Example 34]
  pIC50: 8.15

## CC1(NS(=O)(=O)c2ccc(-c3nc(-c4ccc(F)cc4)n4c3CCO[C@H](CF)C4)cc2)CCC1 [Example 39]
  pIC50: 9.05

## C[C@@H]1Cn2c(-c3ccc(OC(F)F)cc3)nc(-c3ccc(S(=O)(=O)NC(C)(C)C)cc3)c2CCO1 [Example 9]
  pIC50: 8.57

## COc1ccc(-c2nc(-c3ccc(S(=O)(=O)NC(C)C)cc3)c3n2C[C@@H](C)OCC3)cc1F [Example 62, (R)—N-isopropyl-4-(3-(3-fluoro-4-methoxyphenyl)-6-methyl-5,6,8,9-tetrahydroimidazo[1,5-d][1,4]oxazepin-1-yl)benzenesulfonamide]
  pIC50: 8.37

## COc1ccc(-c2nc(-c3ccc(S(=O)(=O)NC4CC4)cc3)c3n2C[C@@H](CF)OCC3)cc1 [Example 47]
  pIC50: 8.20

## CCOc1ccc(-c2nc(-c3ccc(S(=O)(=O)NC4CC4)cc3)c3n2C[C@@H](C)OCC3)cc1 [Example 32]
  pIC50: 8.41

From US20160052937A1, “Tetrahydroimidazo[1,5-d][1,4]oxazepine compound” (Eisai R&D Management Co., Ltd., priority 2014, published 2016)
